According to publication PMC3720808 (European journal of medicinal chemistry, 2013):
Where two headings read alike, the source gives them in different places.

Key:
Axl = target: T1, Axl (Homo sapiens, UniProt P30530); assay: Microfluidic capillary electrophoresis; assay type: biochemical
T1 sequence (P30530 26-894): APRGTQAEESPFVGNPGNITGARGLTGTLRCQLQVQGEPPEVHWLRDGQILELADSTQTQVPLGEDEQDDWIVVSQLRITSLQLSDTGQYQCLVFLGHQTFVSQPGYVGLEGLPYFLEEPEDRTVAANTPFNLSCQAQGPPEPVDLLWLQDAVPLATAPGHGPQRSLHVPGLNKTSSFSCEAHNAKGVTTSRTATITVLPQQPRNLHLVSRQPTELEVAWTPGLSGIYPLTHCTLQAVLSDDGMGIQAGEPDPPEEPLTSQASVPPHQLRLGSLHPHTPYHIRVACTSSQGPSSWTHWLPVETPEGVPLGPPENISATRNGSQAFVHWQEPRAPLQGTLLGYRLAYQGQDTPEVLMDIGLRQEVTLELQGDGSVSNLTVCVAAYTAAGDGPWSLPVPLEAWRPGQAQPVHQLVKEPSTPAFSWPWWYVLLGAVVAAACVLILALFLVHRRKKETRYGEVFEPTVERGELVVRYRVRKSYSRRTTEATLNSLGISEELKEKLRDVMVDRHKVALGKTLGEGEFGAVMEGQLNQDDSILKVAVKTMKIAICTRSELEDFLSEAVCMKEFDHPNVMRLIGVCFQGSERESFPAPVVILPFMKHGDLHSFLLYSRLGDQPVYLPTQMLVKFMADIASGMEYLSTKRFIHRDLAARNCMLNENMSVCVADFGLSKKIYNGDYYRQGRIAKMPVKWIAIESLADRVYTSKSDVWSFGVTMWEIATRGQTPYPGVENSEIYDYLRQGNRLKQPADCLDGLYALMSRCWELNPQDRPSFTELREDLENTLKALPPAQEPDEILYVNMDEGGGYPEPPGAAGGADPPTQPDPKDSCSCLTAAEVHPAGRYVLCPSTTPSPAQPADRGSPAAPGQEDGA

Tyro3 = target: T2, Tyro3 (Homo sapiens, UniProt Q06418); assay: Microfluidic capillary electrophoresis; assay type: biochemical
T2 sequence (Q06418 41-890): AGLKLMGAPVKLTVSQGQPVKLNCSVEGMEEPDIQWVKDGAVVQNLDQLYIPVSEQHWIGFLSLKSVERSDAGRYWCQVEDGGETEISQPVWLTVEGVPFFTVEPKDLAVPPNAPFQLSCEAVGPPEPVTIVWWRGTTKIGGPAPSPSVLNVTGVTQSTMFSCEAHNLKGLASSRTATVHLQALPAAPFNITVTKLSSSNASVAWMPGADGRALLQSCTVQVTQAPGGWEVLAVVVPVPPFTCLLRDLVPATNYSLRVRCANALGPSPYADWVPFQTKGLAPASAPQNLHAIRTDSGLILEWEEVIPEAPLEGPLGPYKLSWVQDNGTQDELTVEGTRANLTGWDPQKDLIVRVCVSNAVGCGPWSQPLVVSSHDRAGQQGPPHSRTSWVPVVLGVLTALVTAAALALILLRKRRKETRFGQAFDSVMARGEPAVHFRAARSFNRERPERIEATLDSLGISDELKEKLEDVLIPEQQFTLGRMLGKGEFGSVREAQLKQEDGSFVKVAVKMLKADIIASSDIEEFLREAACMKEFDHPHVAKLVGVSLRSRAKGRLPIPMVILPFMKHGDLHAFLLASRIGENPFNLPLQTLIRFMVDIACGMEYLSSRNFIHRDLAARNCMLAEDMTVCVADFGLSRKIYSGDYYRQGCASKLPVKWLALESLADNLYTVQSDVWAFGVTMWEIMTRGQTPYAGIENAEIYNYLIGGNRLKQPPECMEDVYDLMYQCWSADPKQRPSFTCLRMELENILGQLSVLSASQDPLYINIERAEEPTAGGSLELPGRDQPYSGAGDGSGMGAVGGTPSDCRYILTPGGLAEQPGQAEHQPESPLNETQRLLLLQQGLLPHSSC

Mer = target: T3, Mer (Homo sapiens, UniProt Q12866); assay: Microfluidic capillary electrophoresis; assay type: biochemical
T3 sequence (Q12866 21-999): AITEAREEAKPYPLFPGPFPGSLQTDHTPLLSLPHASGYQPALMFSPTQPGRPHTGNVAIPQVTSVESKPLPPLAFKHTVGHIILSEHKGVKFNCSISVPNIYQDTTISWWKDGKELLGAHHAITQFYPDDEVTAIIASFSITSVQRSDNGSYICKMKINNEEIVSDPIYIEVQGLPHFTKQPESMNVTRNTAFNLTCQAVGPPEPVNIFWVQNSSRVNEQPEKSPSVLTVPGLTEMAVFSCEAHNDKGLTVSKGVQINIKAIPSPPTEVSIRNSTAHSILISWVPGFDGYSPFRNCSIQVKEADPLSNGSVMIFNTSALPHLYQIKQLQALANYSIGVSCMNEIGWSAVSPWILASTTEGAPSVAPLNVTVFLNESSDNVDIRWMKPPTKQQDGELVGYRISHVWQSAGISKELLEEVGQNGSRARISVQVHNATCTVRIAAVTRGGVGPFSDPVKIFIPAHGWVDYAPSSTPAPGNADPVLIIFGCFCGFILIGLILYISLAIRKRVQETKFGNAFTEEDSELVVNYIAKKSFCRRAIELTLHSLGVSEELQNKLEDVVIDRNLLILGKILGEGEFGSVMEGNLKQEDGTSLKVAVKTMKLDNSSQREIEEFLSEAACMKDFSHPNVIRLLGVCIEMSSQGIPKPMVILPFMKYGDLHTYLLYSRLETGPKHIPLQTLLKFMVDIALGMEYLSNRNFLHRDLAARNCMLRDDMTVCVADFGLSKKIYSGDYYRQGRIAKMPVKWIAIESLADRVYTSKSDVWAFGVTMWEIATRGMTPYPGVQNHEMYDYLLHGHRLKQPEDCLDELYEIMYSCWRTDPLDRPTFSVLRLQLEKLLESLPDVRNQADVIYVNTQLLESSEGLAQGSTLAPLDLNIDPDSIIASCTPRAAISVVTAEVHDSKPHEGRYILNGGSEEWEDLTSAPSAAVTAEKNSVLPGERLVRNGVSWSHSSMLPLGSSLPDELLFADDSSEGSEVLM

hERG channel = hERG channel (Homo sapiens, UniProt Q12809); assay: hERG PatchXpress assay / hERG binding assay; details: read-out: hERG EC50
hERG channel, sequence (Q12809 whole entry): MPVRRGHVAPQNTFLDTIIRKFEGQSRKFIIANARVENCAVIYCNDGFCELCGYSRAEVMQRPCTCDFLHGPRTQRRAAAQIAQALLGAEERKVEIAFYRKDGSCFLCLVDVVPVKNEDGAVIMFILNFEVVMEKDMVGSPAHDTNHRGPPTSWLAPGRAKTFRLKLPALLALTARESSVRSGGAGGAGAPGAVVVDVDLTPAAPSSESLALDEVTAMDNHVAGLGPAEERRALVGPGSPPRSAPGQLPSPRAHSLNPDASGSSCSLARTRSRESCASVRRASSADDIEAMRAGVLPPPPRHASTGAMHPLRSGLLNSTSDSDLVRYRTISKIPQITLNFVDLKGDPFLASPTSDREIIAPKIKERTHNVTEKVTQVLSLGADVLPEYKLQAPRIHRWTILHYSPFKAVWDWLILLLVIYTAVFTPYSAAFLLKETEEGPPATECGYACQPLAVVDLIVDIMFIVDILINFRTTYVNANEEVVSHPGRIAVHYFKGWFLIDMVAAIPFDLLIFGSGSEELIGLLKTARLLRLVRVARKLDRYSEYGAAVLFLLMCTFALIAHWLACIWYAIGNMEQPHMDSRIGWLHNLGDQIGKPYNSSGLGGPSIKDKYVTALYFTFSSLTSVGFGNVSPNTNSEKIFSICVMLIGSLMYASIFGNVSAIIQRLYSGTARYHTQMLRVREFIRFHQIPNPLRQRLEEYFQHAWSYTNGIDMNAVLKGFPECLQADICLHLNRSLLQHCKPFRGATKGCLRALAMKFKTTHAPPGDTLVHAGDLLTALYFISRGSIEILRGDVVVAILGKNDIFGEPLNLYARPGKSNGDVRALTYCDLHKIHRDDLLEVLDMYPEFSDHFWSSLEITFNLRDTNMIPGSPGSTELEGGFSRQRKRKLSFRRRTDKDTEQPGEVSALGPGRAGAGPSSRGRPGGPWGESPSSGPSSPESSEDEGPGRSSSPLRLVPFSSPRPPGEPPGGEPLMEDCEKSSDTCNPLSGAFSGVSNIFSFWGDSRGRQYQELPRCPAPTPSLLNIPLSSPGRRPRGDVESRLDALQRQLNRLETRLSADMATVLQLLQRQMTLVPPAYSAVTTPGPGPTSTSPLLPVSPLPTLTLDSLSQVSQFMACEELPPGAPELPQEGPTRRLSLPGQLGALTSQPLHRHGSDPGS

A549 cells = assay: Soft agar colony formation assay, A549; details: 2 weeks
Colo699 cells = assay: Soft agar colony formation assay, Colo699; details: 2 weeks

Row | Compound | IC50 (Axl) | IC50 (Tyro3) | further results
1 | CCCCNc1ncc2c(-c3ccc(NS(C)(=O)=O)cc3)nn([C@H]3CC[C@H](O)CC3)c2n1 [Compound 18, trans-N-(4-(6-(Butylamino)-1-(4-hydroxycyclohexyl)-1H-pyrazolo[3,4-d]pyrimidin-3-yl)phenyl)methanesulfonamide] | 0.11 µM | 0.035 µM | 
2 | CCCCNc1ncc2c(-c3ccc(S(=O)(=O)NCCC)cc3)nn([C@H]3CC[C@H](O)CC3)c2n1 [Compound 21, trans-4-(6-(Butylamino)-1-(4-hydroxycyclohexyl)-1H-pyrazolo[3,4-d]pyrimidin-3-yl)-N-propylbenzenesulfonamide] | 0.062 µM | 0.035 µM | 
3 | CCCCNc1ncc2c(-c3ccc(S(=O)(=O)N4CCC(C(=O)N5CCOCC5)CC4)cc3)nn([C@H]3CC[C@H](O)CC3)c2n1 [Compound 36, trans-(1-((4-(6-(Butylamino)-1-(4-hydroxycyclohexyl)-1H-pyrazolo[3,4-d]pyrimidin-3-yl)phenyl)sulfonyl)piperidin-4-yl)(morpholino)methanone] | 0.023 µM | 0.076 µM | IC50 (Mer): 0.0014 µM
4 | CCCCNc1ncc2c(-c3ccc(F)cc3)nn(CC3CCC(N)CC3)c2n1 (stereo not drawn) [UNC569] |  |  | EC50 (hERG channel): 1.7 µM
5 | CCCCNc1ncc2c(-c3ccc(S(=O)(=O)NC4CCOCC4)cc3)nn([C@H]3CC[C@H](O)CC3)c2n1 [Compound 26, trans-4-(6-(Butylamino)-1-(4-hydroxycyclohexyl)-1H-pyrazolo[3,4-d]pyrimidin-3-yl)-N-(tetrahydro-2H-pyran-4-yl)benzenesulfonamide] | 0.069 µM | 0.028 µM | 
6 | CCCCNc1ncc2c(-c3ccc(S(=O)(=O)NC4CCCCC4)cc3)nn([C@H]3CC[C@H](O)CC3)c2n1 [Compound 25, trans-4-(6-(Butylamino)-1-(4-hydroxycyclohexyl)-1H-pyrazolo[3,4-d]pyrimidin-3-yl)-N-cyclohexylbenzenesulfonamide] | 0.35 µM | 0.045 µM | 
7 | CCCCNc1ncc2c(-c3ccc(S(=O)(=O)NC)cc3)nn(C[C@H]3CC[C@H](O)CC3)c2n1 [Compound 7, 4-(1-((trans-4-Hydroxycyclohexyl)methyl)-6-(butylamino)-1H-pyrazolo[3,4-d]pyrimidin-3-yl)-N-methylbenzenesulfonamide] | 0.14 µM | 0.13 µM | 
8 | CCCCNc1ncc2c(-c3ccc(S(=O)(=O)NC(C)C)cc3)nn([C@H]3CC[C@H](O)CC3)c2n1 [Compound 22, trans-4-(6-(Butylamino)-1-(4-hydroxycyclohexyl)-1H-pyrazolo[3,4-d]pyrimidin-3-yl)-N-isopropylbenzenesulfonamide] | 0.12 µM | 0.068 µM | 
9 | CCCCNc1ncc2c(-c3ccc(S(=O)(=O)N4CCOCC4)cc3)nn([C@H]3CC[C@H](O)CC3)c2n1 [Compound 35, trans-4-(6-(Butylamino)-3-(4-(morpholinosulfonyl)phenyl)-1H-pyrazolo[3,4-d]pyrimidin-1-yl)cyclohexanol] |  |  | colony formation in soft agar (A549 cells): inhibited colony formation; colony formation in soft agar (Colo699 cells): inhibited colony formation
10 | CCCCNc1ncc2c(-c3ccc(S(=O)(=O)NC)cc3)nn(C[C@H]3CC[C@H](N)CC3)c2n1 [Compound 2, 4-(1-((trans-4-Aminocyclohexyl)methyl)-6-(butylamino)-1H-pyrazolo[3,4-d]pyrimidin-3-yl)-N-methylbenzenesulfonamide] | 0.059 µM | 0.027 µM | 
11 | CCCCNc1ncc2c(-c3ccc(S(=O)(=O)NC4CCCC4)cc3)nn([C@H]3CC[C@H](O)CC3)c2n1 [Compound 24, trans-4-(6-(Butylamino)-1-(4-hydroxycyclohexyl)-1H-pyrazolo[3,4-d]pyrimidin-3-yl)-N-cyclopentylbenzenesulfonamide] | 0.067 µM | 0.031 µM | 
12 | CCCCNc1ncc2c(-c3ccc(S(N)(=O)=O)cc3)nn([C@H]3CC[C@H](O)CC3)c2n1 [Compound 20, trans-4-(6-(Butylamino)-1-(4-hydroxycyclohexyl)-1H-pyrazolo[3,4-d]pyrimidin-3-yl)benzenesulfonamide] | 0.029 µM | 0.054 µM | IC50 (Mer): 0.0014 µM
13 | CCCCNc1ncc2c(-c3ccc(S(=O)(=O)N4CCCC4)cc3)nn([C@H]3CC[C@H](O)CC3)c2n1 [Compound 34, trans-4-(6-(Butylamino)-3-(4-(pyrrolidin-1-ylsulfonyl)phenyl)-1H-pyrazolo[3,4-d]pyrimidin-1-yl)cyclohexanol] |  |  | IC50 (Axl; read-out: IC50 Axl, ATP at Km, mean of two or more independent assays): 0.046 µM; IC50 (Mer; read-out: IC50 Mer, ATP at Km, mean of two or more independent assays): 0.00065 µM; IC50 (Tyro3; read-out: IC50 Tyro3, ATP at Km, mean of two or more independent assays): 0.022 µM
14 | CCCCNc1ncc2c(-c3ccc(S(=O)(=O)Nc4ccc(F)cc4)cc3)nn([C@H]3CC[C@H](O)CC3)c2n1 [Compound 27, trans-4-(6-(Butylamino)-1-(4-hydroxycyclohexyl)-1H-pyrazolo[3,4-d]pyrimidin-3-yl)-N-(4-fluorophenyl)benzenesulfonamide] | 6.5 µM | 0.29 µM | 
